Values joined by “and” are separate entries in the source; they are usually repeats but may differ in a detail not shown here. Identical values can stand only once.
Experiments:
Cos-7 cells = assay: LDH cytotoxicity assay on Cos-7 cells; assay type: cell-based; conditions: 24 h
Procedure: (§1) To assess the cytotoxicity properties of BPPB, the lactate dehydrogenase (LDH) cytotoxicity assay (Abcam, Cat#ab102526) was performed, following manufacturer’s protocol, as previously described. This time, the increasing concentrations of BPPB were in the range 0.4–85.3 µM.
(§2) In this study, the cytotoxicity profile of BPPB was assessed in both immortalized human liver cells (HepG2) cells, as in our previous works, and in transformed African green monkey kidney fibroblast cells (Cos-7), as reported in a recent paper. Specifically, we evaluated the cytotoxicity of BPPB by carrying out both the MTT proliferation assay and the lactate dehydrogenase (LHD) cytotoxicity assay, which measures the LDH activity as an indicator of cell death. Both cell lines were exposed for 24 h to increasing concentrations of BPPB (0.4–85.3 µM). Growth inhibition/death were determined by the MTT test, while cell cytotoxicity was determined by LDH assay, with respect to untreated control cells. Results are reported as bar graphs in Figure 8 and as dispersion graphs in Figures S13 and S14 in Supplementary Materials (Section S2).

[1] = MTT cytotoxicity assay on HepG2 cells; assay type: cell-based, human; conditions: human
Procedure: (§3) To assess the cytotoxicity properties of BPPB, the MTT (3-(4,5-dimethylthiazol-2-yl)-2,5-diphenyltetrazolium bromide) cell proliferation assay (Abcam, Prodotti Gianni s.r.l., Milano, Italy, Cat#ab2011091) was performed, following the manufacturer’s protocol, as previously reported. This time, the increasing concentrations of BPPB were in the range of 0.4–85.3 µM. The cell survival rate, expressed as cell viability percentage (%), was evaluated based on the experimental outputs of treated groups vs. the untreated groups (CTR) and was calculated as follows: cell viability (%) = (OD treated cells − OD blank)/(OD untreated cells − OD blank) × 100%.
as §2

HepG2 cells [2] = assay: MTT cytotoxicity assay on HepG2 cells; assay type: cell-based, human; conditions: for IC50: MTT, concentration range 0.4–85.3 µM
Procedure: as §3, §2

HepG2 cells [3] = assay: LDH cytotoxicity assay on HepG2 cells; assay type: cell-based; conditions: LDH test; 24 h
Procedure: as §1, §2

[4] = tested on: HTLA-230 human stage-IV NB cells; assay: Cell viability assay (CellTiter 96 AQueous One Solution) on HTLA-230 NB cells; assay type: cell-based; conditions: for viability at 0.5 µM: series 0.5–50 µM
Source text: HTLA-230 human stage-IV NB cells were kindly provided by Dr. L. Raffaghello (G. Gaslini Institute, Genoa, Italy). The HTLA-ER cells were selected by treating HTLA-230 parental cells for six months with increasing concentrations of etoposide, as previously reported. Both cell populations were maintained in RPMI 1640 medium (Euroclone Spa, Pavia, Italy) supplemented with 10% fetal bovine serum (FBS, Euroclone Spa, Pavia, Italy), 1% L-glutamine (Euroclone Spa, Pavia, Italy), and 1% Penicillin/Streptomicin (Euroclone Spa, Pavia, Italy) and grown in standard conditions (37 °C humidified incubator with 5% CO2).
To determine the cytotoxic effects of BPPB, in vitro time- and dose-dependent experiments were carried out. Cells were first treated for 24, 48, and 72 h, with increasing concentrations (0.5–50 µM) of the compound. In a subsequent series of the experiments, cells were treated for 24, 48, and 72 h with increasing concentration of BPPB in the range of 0.1–2 µM. […] Cell cultures were carefully monitored before and during the experiments to ensure optimal cell density.
Cell viability was determined by using the CellTiter 96® AQueous One Solution Cell Proliferation Assay (Promega, Madison, WI, USA), as previously described. Briefly, cells (10,000 cells/well) were seeded into 96-well plates (Corning Incorporated, Corning, NY, USA) and then treated. Next, cells were incubated with 20 µL of CellTiter, and the absorbance at 490 nm was recorded using a microplate reader (EL-808, BIO-TEK Instruments Inc., Winooski, VT, USA). IC50 was evaluated by GraphPad Prism 5.4.2 Software (GraphPad Software, Boston, MA, USA).
Results are expressed as the means ± S.D. of at least four independent experiments in which six different wells were analyzed every time for each experimental condition. The statistical significance of differences was determined by two-way analysis of variances (ANOVA) followed by Tukey’s multicomparison test using GraphPad Prism 8.0 (GraphPad Software v8.0, San Diego, CA, USA); p < 0.05 was considered statistically significant. Asterisks or other indicators (see Figures captions) indicate the following p-value ranges: p > 0.05 no symbols, * = p < 0.05, ** = p < 0.01, *** = p < 0.001, **** = p < 0.0001.

For `c1ccc([P+](CCCCCCCCCCCC[P+](c2ccccc2)(c2ccccc2)c2ccccc2)(c2ccccc2)c2ccccc2)cc1` [BPPB, 1,1-(1,12-dodecanediyl)bis [1,1, 1]-triphenylphosphonium di-bromide], the “LDH release Cos-7 (optical density)” value (Cos-7 cells; 4.3 µM) was 0.30 OD, the “LDH release Cos-7 (optical density)” value (Cos-7 cells; 8.5 µM) was 0.80 OD and the “Concentrations with a safety profile toward Cos-7” value (Cos-7 cells; LDH test) was no more than 4.3 µM. The viability at 24 h ([1]; HepG2 cells, 8.5 µM and 4.3 µM, which value belongs to which concentration is not stated, read-out: Cell viability HepG2 (MTT)) was 64.5%, the selectivity ratio at 24 h ([1]; read-out: Selectivity index (SI) = IC50 HepG2 / IC50 HTLA-ER) was 8.7 and the “Selectivity index (SI) = IC50 HepG2 / IC50 HTLA-230” value (HepG2 cells [2]; 24 h) was 40.6 and 40.63. For the same molecule, the “Selectivity index (SI) = IC50 HepG2 / IC50 HTLA-ER” value (HepG2 cells [2]; 24 h) was 8.68, the IC50 (HepG2 cells [2]; 24 h) was 9640 ± 1310 nM and the IC50 (HepG2 cells [2]; Homo sapiens, HepG2, 24 h) was 9600 nM. The “Concentrations with a safety profile toward HepG2” value (HepG2 cells [2]; MTT test, 24 h) was no more than 8.5 µM, the “Concentrations with a safety profile toward HepG2” value (HepG2 cells [3]) was no more than 8.5 µM and the “Cell viability HTLA-230” value ([4]; 24 h, concentration at which hemolysis was inexistent (concentration not stated)) was 18.2%. For the same molecule, the IC50 ([4]; 24 h exposure, refined concentration range 0.1–2 µM) was 240 nM and 238 nM, the “Viable cells, both NB cell populations” value ([4]; 24 h treatment, HTLA-230 and HTLA-ER, concentrations leaving more than 98% of RBCs alive) was 14–18% and the IC50 ([4]; Homo sapiens, HTLA-230, 24 h, 24 h exposure, concentration range 0.5–50 µM) was 738 ± 546 nM. It also gave an IC50 ([4]; Homo sapiens, HTLA-230, 24 h, 24 h exposure, refined concentration range 0.1–2 µM) of 200 nM, an IC50 ([4]; Homo sapiens, HTLA-230, 48 h, 48 h exposure, concentration range 0.5–50 µM) of 590 ± 445 nM and an IC50 ([4]; Homo sapiens, HTLA-230, 48 h, 48 h exposure, refined concentration range 0.1–2 µM) of 196 ± 21.1 nM. It also gave an IC50 ([4]; Homo sapiens, HTLA-230, 72 h, 72 h exposure, concentration range 0.5–50 µM) of 203 ± 178 nM, an IC50 ([4]; Homo sapiens, HTLA-230, 72 h, 72 h exposure, refined concentration range 0.1–2 µM) of 228 ± 17.6 nM and a viability at 0.25 µM ([4]; Homo sapiens, HTLA-230, 0.25 µM, 24 h, series 0.1–2 µM) of 53.1%. For the same molecule, the viability at 0.5 µM ([4]; Homo sapiens, HTLA-230, 24 h) was 46%, the viability at 0.5 µM ([4]; Homo sapiens, HTLA-230, 48 h) was 41.6% and the viability at 0.5 µM ([4]; Homo sapiens, HTLA-230, 72 h) was 21.7%. The viability at 5 µM ([4]; Homo sapiens, HTLA-230, concentrations ≥ 5 µM, 24, 48, 72 h) was 16 to 18% and the “Selectivity indexes (SIs), all non-tumoral cells vs both NB cell populations” value ([4]; after 24 h treatments, MRC-5, Cos-7, HepG2, RBCs vs HTLA-230 and HTLA-ER) was 2.5–74.6.

Reference: paper PMC11434613, “The Remarkable and Selective In Vitro Cytotoxicity of Synthesized Bola-Amphiphilic Nanovesicles on Etoposide-Sensitive and -Resistant Neuroblastoma Cells” (Nanomaterials, 2024)
